TGI and GI50 data for 32 compounds are collected here from PubChem BioAssay (NCI).

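Five compound concentrations were applied to cells in 96-well plates for 48 hours; endpoints were derived by simple linear interpolation of the resulting dose-response curve. The concentration for 50% growth inhibition is given as GI50. TGI: concentration producing complete growth inhibition.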

Holding throughout (experiment): NCI tumour cell line growth inhibition, 48 h
The test system of experiment [1] is KM20L2 colon.
The test system of experiment [2] is LXFL 529 NSCLC.
In experiment [3] the test system is M19-MEL melanoma.
Experiment [4] deals with RXF-631 renal.
Experiment [5] relates to HS 578T breast.
In experiment [6] the test system is MDA-N.

As to `O=C(Cc1nc2ccccc2s1)Nc1cccc(C(F)(F)F)c1`, the TGI in experiment [1] stood at 41.6 µM; in experiment [2] it was 27.3 µM; in experiment [3], 25.6 µM; in experiment [4], 26.8 µM.

Consider `O=[N+]([O-])c1c(Br)sc(Br)c1[N+](=O)[O-]`, for which, in experiment [5], the GI50 is 2.59 µM and the TGI was found to be 9.53 µM.

Take `O=CC[C@H]1CCc2ccccc2C12CCC(=O)CC2`: the TGI in experiment [1], in experiment [2], in experiment [3] and in experiment [4] was more than 100 µM in each case.

Regarding `Nc1nc(-c2ccc(F)cc2)c(-c2ccc3ncccc3n2)s1`, in experiment [5], the GI50 was 9.61 µM and the TGI was more than 25 µM.

For `Fc1ccc(Nc2nc3nonc3nc2Nc2ccc(F)cc2)cc1`, in experiment [5], the GI50 was 0.37 µM and the TGI was found to be 4.03 µM.

As for `COc1cc2c3c(c1OC)-c1c(ccc4c1OCO4)CC3(C#N)N(C(=O)c1ccccc1)CC2` (centres undefined), the TGI in experiment [1], in experiment [2], in experiment [3] and in experiment [4] was more than 100 µM in each case.

On to `COc1ccc(Cn2cc3c(c2-c2ccc(OC)cc2)CCc2cnoc2-3)cc1`, for which, in experiment [5], the GI50 is 0.301 µM and the TGI was 1.14 µM.

As to `O=[N+]([O-])c1cccc(C2ON2C2CCCCC2)c1` (centres undefined), the TGI in experiment [1] was found to be 49.3 µM; in experiment [2], 45.6 µM; in experiment [3] it was 39.9 µM.

`CCCCS(=O)(=O)CCC(N)C(=O)O` (centres undefined): the TGI in experiment [5] and in experiment [6] was more than 100 µM each time.

As to `CC[C@@H](C(=O)[C@@H](C)[C@@H](O)[C@H](C)[C@@H]1O[C@@H]([C@@H](CC)C(=O)N(CC)CC)CC[C@@H]1C)C1O[C@]2(C=CC(=O)[C@]3(CC[C@@](C)([C@H]4CC[C@](O)(CC)[C@H](C)O4)O3)O2)[C@H](C)C[C@@H]1C` (some centres undefined), in experiment [5], the GI50 is 2.68 µM and the TGI amounted to 16.1 µM.

For the compound `COc1cc(O)c(C(=O)/C=C/c2ccc(O)cc2)c(O)c1[C@@H]1C[C@H](CCc2ccc(O)cc2)O[C@H](c2ccc(O)cc2)C1`, in experiment [5], the GI50 was 3.34 µM and the TGI came out at 16.6 µM.

With `COC(=O)CCC(=O)CC(=O)C(=O)Nc1c(Cl)cc([N+](=O)[O-])cc1Cl`, the TGI in experiment [1], in experiment [2], in experiment [3] and in experiment [4] was more than 100 µM throughout.

In the case of `CCc1cccc(C(C)C)c1NC(=O)C(=O)C(CC(=O)Nc1ccc(Cl)c(Cl)c1)C(=O)OC` (centres undefined), the TGI in experiment [1], in experiment [3] and in experiment [4] was more than 100 µM each time.

As for `C[C@]1(CO)CCC[C@@]2(C)C1CC[C@H]1CC3C[C@]12CC[C@]3(C)O` (some centres undefined), the TGI in experiment [1] and in experiment [4] was more than 100 µM each time.

Consider `CCC1CCc2nc3sc(C(=O)Nc4cccc(F)c4)c(N)c3cc2C1` (centres undefined), for which, in experiment [5], the GI50 was more than 100 µM and the TGI is more than 100 µM.

`COc1cc(/C=C/C(=O)c2ccc(NC(=O)CN3CCN(c4cc5c(cc4F)c(=O)c(C(=O)O)cn5C4CC4)CC3)cc2)cc(OC)c1OC`: in experiment [5], the GI50 was 16.3 µM and the TGI is more than 100 µM.

Consider `Clc1ccc(C2SCc3nc4ccccc4n32)cc1Cl` (centres undefined), for which the TGI in experiment [2] was determined as 24 µM.

For the compound `O=C(NP(=O)(N1CC1)N1CC1)c1cc(I)ccc1I`, the TGI in experiment [5], in experiment [1], in experiment [2], in experiment [3] and in experiment [6] was more than 100 µM throughout.

Turning to `COc1cc2c3c(n(CCCI)c(=O)c2cc1OC)-c1cc2c(cc1C3=O)OCO2`, in experiment [5], the GI50 was more than 100 µM and the TGI was more than 100 µM.

Take `COc1ccc2c(c1)C(=O)c1c-2c(Nc2ccc(Cl)cc2)nc2ccccc12`: in experiment [5], the GI50 was 2.58 µM and the TGI was determined as 8.82 µM.

As to `Nc1nc(-c2ccccc2)nc(N)c1N=O`, in experiment [5], the GI50 was 8.14 µM and the TGI was more than 100 µM.

`S=c1cc(S)sc2c1c(=S)sc1nc3ccccn3c(=S)c12`: the TGI in experiment [1] and in experiment [3] was more than 100 µM in each case.

`Cc1cccc2c(=O)c3c(sc12)c(NCCNCCO)nc1ccccc13`: in experiment [5], the GI50 was 1.62 µM and the TGI worked out at 3.74 µM.

Consider `COc1ccc(Nc2c3ccccc3nc3ccccc23)cc1`, for which, in experiment [5], the GI50 was 5.26 µM and the TGI worked out at 27.5 µM.

Consider `Fc1ccccc1C1CC(c2ccc3ccccc3c2)=Nc2ccccc2S1` (centres undefined), for which the TGI in experiment [1], in experiment [2] and in experiment [3] was more than 100 µM in each case.

Consider `Cc1c(COc2cc(OCc3cccc(C#N)c3)c(CN3C[C@H](O)C[C@@H]3C(=O)O)cc2Cl)cccc1-c1ccc2c(c1)OCCO2`, for which, in experiment [5], the GI50 was 21 µM and the TGI came to 53.1 µM.

Consider `CC1(C)[C@@H](O[C@@H]2OC[C@@H](O[C@@H]3O[C@H](CO)[C@@H](O)[C@H](O)[C@H]3O[C@@H]3OC[C@@H](O)[C@H](O)[C@H]3O)[C@H](O)[C@H]2O[C@@H]2O[C@H](CO)[C@@H](O)[C@H](O)[C@H]2O)CC[C@]2(C)[C@H]3CC[C@]45OC[C@@]6(CC[C@](C)(C=O)C[C@H]64)[C@H](O)C[C@@]5(C)[C@]3(C)CC[C@@H]12`, for which, in experiment [5], the GI50 is 0.995 µM and the TGI came to 2.4 µM.

`CCNC(=O)c1cc2c(-c3cc(C(C)(C)O)ccc3Oc3c(C)cc(F)cc3C)cn(C)c(=O)c2[nH]1`: in experiment [5], the GI50 is 0.753 µM and the TGI amounted to 21.5 µM.

As for `Cc1cc(N(CCNc2ccnc3cc(Cl)ccc23)Cc2ccco2)nc(Cl)n1`, in experiment [5], the GI50 is 2.43 µM and the TGI stood at 6.28 µM.

With `O=C(CC1(O)C(=O)Nc2c(Cl)cc(Cl)cc21)c1cccc2ccccc12` (centres undefined), the TGI is 34.1 µM in experiment [1], 28.6 µM in experiment [2] and 43.3 µM in experiment [4].

In the case of `Cn1ccnc1C(=O)/C=C/c1ccccc1`, in experiment [5], the GI50 was 2.39 µM and the TGI came to 8.6 µM.

In the case of `CC(=O)c1ccc(NC(=O)C(=O)Nn2c(=S)[nH]c3ccccc3c2=O)cc1`, the TGI in experiment [1], in experiment [2] and in experiment [3] was more than 100 µM each time.
